Consider ten molecules from ChEMBL document CHEMBL1147930, “Selective inhibition of the interaction of C1q with immunoglobulins and the classical pathway of complement activation by steroids and triterpenoids sulfates” (Bioorg Med Chem, 2007).

A short description of series [1]: Inhibition of classical pathway of complement activation in sheep erythrocytes in presence of guinea-pig serum. In kind it is functional, cell-based, Ovis aries. The conditions noted are these: erythrocyte.
Series [2] can be described thus: Toxicity in sheep erythrocytes assessed as intrinsic hemolytic activity. Format: cell-based, Ovis aries, Erythrocyte. The conditions noted are these: read-out: ED50 (the source's name).
Series [3] can be described thus: Inhibition of alternative pathway of complement activation in rabbit erythrocytes in presence of human serum. In kind it is functional, cell-based, Oryctolagus cuniculus. The conditions noted are these: erythrocyte.
The nature of series [4]: Inhibition of classical pathway of complement activation in sheep erythrocytes in presence of human serum. Format: functional, cell-based, Ovis aries. The conditions noted are these: erythrocyte.
Series [5] is described as follows: Inhibition of C1q immunoglobulin interaction by ELISA. Set-up: species or system Homo sapiens. Background: An ELISA detects its analyte on a solid surface through an enzyme-linked reagent.
Series [6] in a line: Inhibition of C1q immunoglobulin interaction by hemolytic method. Set-up: species or system Homo sapiens.

Counter-ions that a name gives are not always drawn. Where only a bound is given, the exact number is not on record here.

Turning to `C[C@]12CC[C@H]3[C@@H](CC=C4C[C@@H](OS(=O)(=O)O)CC[C@@]43C)[C@@H]1CC[C@@H]2C(=O)O`, the IC50 (commonly the point on the concentration scale where inhibition reaches its midpoint) in series [1] was determined as 410 µM. Further, the HC50 in series [2] is greater than 1600 µM.

Consider `C[C@H](CCC(=O)O)[C@H]1CC[C@H]2[C@@H]3CC=C4C[C@@H](OS(=O)(=O)O)CC[C@]4(C)[C@H]3CC[C@]12C`, for which the IC50 in series [1] amounted to 23.7 µM. Moreover, in series [2], the HC50 was greater than 400 µM.

Turning to `CC1(C)[C@@H](OS(=O)(=O)O)CC[C@]2(C)[C@H]3CC[C@@H]4[C@H]5[C@H](C6(C)CC6(Cl)Cl)CC[C@]5(COS(=O)(=O)O)CC[C@@]4(C)[C@]3(C)CC[C@@H]12` (some centres not stated), in series [1], the IC50 was determined as 6.8 µM. The HC50 in series [2] is 85 µM.

With `C=C(C)[C@@H]1CC[C@]2(COP(=O)(O)O)CC[C@]3(C)[C@H](CC[C@@H]4[C@@]5(C)CC[C@H](OP(=O)(O)O)C(C)(C)[C@@H]5CC[C@]43C)[C@@H]12` [BETULIN DIPHOSPHATE], in series [1], the IC50 came to 42.6 µM. Moreover, the HC50 in series [2] was greater than 800 µM.

For the molecule `C=C(C)[C@@H]1CC[C@]2(COS(=O)(=O)O)CC[C@]3(C)[C@H](CC[C@@H]4[C@@]5(C)CC[C@H](OS(=O)(=O)O)C(C)(C)[C@@H]5CC[C@]43C)[C@@H]12` [BETULIN DISULFATE], the IC50 in series [1] is 6.9 µM; in series [3] it was 414 µM; in series [4], 14.6 µM. Also, the results for the Ki in series [5] and in series [6] were 42.2 µM and 8.6 µM, respectively. Besides, the HC50 in series [2] is 850 µM.

As for `C=C(C)[C@@H]1CC[C@]2(C(=O)O)CC[C@]3(C)[C@H](CC[C@@H]4[C@@]5(C)CC[C@H](OS(=O)(=O)O)C(C)(C)[C@@H]5CC[C@]43C)[C@@H]12` [BETULINIC ACID SULFATE], the IC50 was determined as 9.9 µM in series [1], 640 µM in series [3] and 53.8 µM in series [4]. The Ki (in general, the dissociation constant of the complex between target and ligand, obtained from inhibition or displacement) in series [5] worked out at 57.3 µM; in series [6], 14.6 µM. Also, the HC50 in series [2] was greater than 900 µM.

As to `C[C@H](CCC(=O)O)[C@H]1CC[C@H]2[C@@H]3[C@H](OS(=O)(=O)O)C[C@@H]4C[C@H](OS(=O)(=O)O)CC[C@]4(C)[C@H]3C[C@H](OS(=O)(=O)O)[C@]12C` [CHOLIC ACID TRISULFATE], in series [1], the IC50 amounted to 101 µM. Further, in series [2], the HC50 was greater than 1400 µM.

Consider `C[C@H](CCC(=O)O)[C@H]1CC[C@H]2[C@@H]3CC[C@@H]4C[C@H](OS(=O)(=O)O)CC[C@]4(C)[C@H]3C[C@H](OS(=O)(=O)O)[C@]12C` [DEOXYCHOLIC ACID DISULFATE], for which, in series [1], the IC50 was determined as 186 µM. For the same molecule, in series [2], the HC50 is greater than 1600 µM.

In the case of `CC1(C)CC[C@]2(C(=O)O)CC[C@]3(C)C(=CCC4[C@@]5(C)CC[C@H](OS(=O)(=O)O)C(C)(C)[C@@H]5CC[C@]43C)[C@@H]2C1` (some centres not stated) [OLEANOLIC ACID SULFATE], the HC50 in series [2] is 15 µM.

In the case of `C[C@H]1[C@H](C)CC[C@]2(C(=O)O)CC[C@]3(C)C(=CC[C@@H]4[C@@]5(C)CC[C@H](OS(=O)(=O)O)C(C)(C)[C@@H]5CC[C@]43C)[C@H]12` [URSOLIC ACID SULFATE], the IC50 in series [1] was 25.2 µM. Besides, in series [2], the HC50 was greater than 900 µM.
